# Laboratory results as given in patent US6368413B1, “Process for preparing improved sugar product” (Praxair Technology, Inc., priority 2000, dated 2002).
# System: Aerobic Bacteria
# Test: Disinfection of sugar liquor by ozonation, aerobic bacteria count
# Description: In the laboratory, tests were performed on refinery liquors at Brix 66 to 70 and color between 60 and 300 Icumsa units (the color of sugar liquors is expressed in Icumsa units following the specific and standardized methodology well known in the sugar industry). A laboratory model generator was used to pass ozone into a batch reactor. The ozone generator was operating on a pure feed gas and it produced 40 g/h of ozone at 5% concentration. Two mixer reactors were used, the first one operating at 800 rpm under a pressure of 60 psig with 2L capacity and the second one operating at atmospheric pressure and 1200 rpm with 10 L capacity. A series of tests were carried out with different types of liquors and the treated sugar was characterized in terms of color, turbidity, pH, saccharose degradation, toxicity and disinfection. The following examples present results of experiments performed in different ozonation conditions with different types of liquors. A 184 Icumsa color units liquor was treated with 200 mg/L of ozone during 8 min using the pressurized reactor. A low color liquor, 64 Icumsa units was treated in the atmospheric pressure reactor under two different ozonation conditions. The following table presents the results of microbiological analyses.
structure (smiles),measurement,setting,value
O=[O+][O-] [ozone],reduction of number of total bacteria after ozonation,"Example 6: 200 mg/L ozone, 8 min",95%
same,reduction of bacteria,Example 7: 200 mg/l ozone,89%
same,disinfection,Example 7: 400 mg/L of ozone,complete disinfection
